The source of these data is US5750391A, “Filariid nematode cysteine protease proteins” (Heska Corporation, priority 1995, dated 1998).

“Also recorded” adds a separate entry of the source. Where two headings read alike, the source gives them in different places.

One test has as its system astacin. The conditions noted are these: cited from earlier work.
A further test concerns D. immitis larvae. The experiment in a line: Effect of protease inhibitors on larval molting (L3 cultured in NI medium). The format is cell-based, Dirofilaria immitis. To be noted: for % molt: L3 larvae, 72 hours, 37° C.; for inhibition at 1000 µM / inhibition at 2500 µM / inhibition at 5000 µM: Dirofilaria immitis, 72 h, read-out: % reduction (of molt vs control).

On to `c1cnc2c(c1)ccc1cccnc12` [1,10-phenanthroline], for which the “inhibition of astacin activity” value in the test on astacin is on record as “inhibited”.

Regarding `CC(C)C[C@H](NC(=O)[C@@H](O)[C@H](N)Cc1ccccc1)C(=O)O` [Bestatin], the “% molt” value in the test with D. immitis larvae (1.0 mM inhibitor) is 60.0%. Further, in the test with D. immitis larvae (2.5 mM inhibitor), the “% molt” value was 34.8%. Also, in the test on D. immitis larvae (5.0 mM inhibitor), the “% molt” value was 4.9%. For the same compound, in the test with D. immitis larvae, the inhibition at 1000 µM is 27.3%, the inhibition at 2500 µM is 57.9% and the inhibition at 5000 µM worked out at 94.1%. Also, the “movement of treated larvae compared to controls” value in the test on D. immitis larvae (observed daily throughout the study) is “moved much more slowly”. The “ability of the larvae to molt” value in the test with D. immitis larvae (treatment of L3, 1 to 5 mM) is on record as “inhibit molting; also recorded: significantly reduces the ability of the larvae to molt”.

For the compound `O=C(O)CN(CCN(CC(=O)O)CC(=O)O)CC(=O)O` [EDTA, ethylene diamine tetraacetic acid], in the test on astacin, the “inhibition of astacin activity” value is “inhibited”.

Consider `CC(C)C[C@H](NP(=O)(O)O[C@@H]1O[C@@H](C)[C@H](O)[C@@H](O)[C@H]1O)C(=O)N[C@@H](Cc1c[nH]c2ccccc12)C(=O)O` [Phosphoramidon], for which, in the test with D. immitis larvae, the “ability of the larvae to molt” value is given as “inhibit molting; also recorded: significantly reduces the ability of the larvae to molt”, the “condition of treated larvae” value is on record as “in poor shape”, the “movement of treated larvae compared to controls” value is reported as “very active” and the inhibition at 1000 µM was found to be 48.4%. In the test on D. immitis larvae, the inhibition at 2500 µM was determined as 85.1% and the inhibition at 5000 µM was found to be 100%. The “inhibition of astacin activity” value with astacin was “not by phosphoramidon”.
